What was measured:
[1] = biological target: T1, Human IL-17A (Homo sapiens, UniProt Q16552); assay: Inhibition of human IL-17A protein-induced GROα/CXCL1 production in HT-29 cells; format: cell-based; parameters: purchased R&D 317-ILB; host or cells: added exogenously to HT-29 cells; conditions: 30 ng/mL human IL-17A protein, 48 h, GROα in supernatant by ELISA kit, read-out: Inhibitory IC50 of compounds on HT-29 cell GROα/CXCL1
T1 sequence (Q16552 20-155 limits assumed): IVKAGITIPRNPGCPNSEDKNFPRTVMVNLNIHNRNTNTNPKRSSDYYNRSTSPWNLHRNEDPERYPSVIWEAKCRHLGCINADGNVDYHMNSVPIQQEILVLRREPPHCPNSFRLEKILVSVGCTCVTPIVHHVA
Method in brief: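 Compound dilutions were preincubated 1 h at 37 °C with 30 ng/mL human IL-17A, then added to HT-29 cells (5×10^4/well) for 48 h at 37 °C. GROα in supernatant quantified by ELISA; IC50 for inhibition of its production. Positive control: IL-17A antibody at […].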

[2] = biological target: T2, Human IL-17AF (Homo sapiens, UniProt Q16552+Q96PD4); assay: IL-17AF ELISA (competitive ELISA, IL-17AF/IL-17Ra receptor-ligand binding); conditions: human IL-17AF coated plate, human IL-17Ra, read-out: IC50, inhibitory activity of compounds on human IL-17AF
T2 construct: purchased Sino Biological Inc. CT047-H08H
T2 sequence (Q16552 24-155): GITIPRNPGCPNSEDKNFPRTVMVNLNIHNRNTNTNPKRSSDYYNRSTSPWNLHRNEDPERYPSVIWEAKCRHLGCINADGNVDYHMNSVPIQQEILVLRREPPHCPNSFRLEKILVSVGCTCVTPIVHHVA
T2 sequence (Q96PD4 31-163): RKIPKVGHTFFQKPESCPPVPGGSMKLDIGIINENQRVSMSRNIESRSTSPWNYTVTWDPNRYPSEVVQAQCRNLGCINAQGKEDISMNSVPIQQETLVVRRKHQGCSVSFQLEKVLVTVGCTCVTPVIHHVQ
Method in brief: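 Inhibitors were first pre-incubated 10 min at 25 °C with plate-bound IL-17AF (coated at 0.625 μg/ml, PBS pH 7.4) before a 30-min exposure to IL-17Ra added from a 100 nM solution. Receptor capture read via anti-Fc HRP, TMB, A450. Residual activity normalized to blank/DMSO wells; IC50 by log(inhibitor)-normalized response, variable slope.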

IC50 [1] [nM] | IC50 [2] [nM] | Structure (SMILES)
100 to 500 | 100 to 500 | Cc1[nH]nc2c1-c1cnc(NC(=O)[C@@H](NC(=O)c3ccnn3C(C)CF)C(C3CC3)C3CC3)cc1COCC2 (single isomer, unassigned) [compound 189b]
≤ 100 | ≤ 100 | CCn1nccc1C(=O)N[C@H](C(=O)Nc1cc2c(cn1)-c1c(n[nH]c1C)CCN(C1CC1)C2)C(C1CC1)C1CC1 [compound 217]
100 to 500 | 100 to 500 | Cc1[nH]nc2c1-c1cc(F)c(NC(=O)[C@@H](NC(=O)c3ccnn3CCOC(C)(C)C)C(C3CC3)C3CC3)cc1COCC2 [compound 113]
≤ 100 | 100 to 500 | Cc1[nH]nc2c1-c1cc(F)c(NC(=O)[C@@H](NC(=O)c3ccnn3CCCC(F)(F)F)C(C3CC3)C3CC3)cc1COCC2 [compound 84]

From patent publication US20260258050A1, “IMMUNOMODULATOR” (HITGEN INC., priority 2023, published 2026)
